{
  "source": "patent US20220031596A1",
  "about": "“ANTI-AGING AGENT AND ANTI-AGING METHOD” (priority 2018, published 2022)",
  "assay_type_in_all_cases": "in vivo, human",
  "key": {"[1]": {"test_system": "mRNA expression level of the sirtuin gene Sirt1", "test": "Evaluation of sirtuin 1 (Sirt1) secretion promoting effect (blood Sirt1 mRNA by real-time PCR, 24-week oral ingestion)", "settings": "for mRNA expression level of the sirtuin gene Sirt1 (relative to that of GAPDH), 0 weeks (before ingestion) / mRNA expression level of the sirtuin gene Sirt1 (relative to that of GAPDH), 24 weeks (after ingestion) / mRNA expression level of the sirtuin gene Sirt1 (relative to that of GAPDH), Change rate (24 weeks - 0 weeks): blood, High Dose Group (200 mg/daily, oral), mean±SD; for mRNA expression level of the sirtuin gene Sirt1 (relative to that of GAPDH), 0 weeks (before ingestion): baseline", "method": "In order to confirm a change in the Sirt1 quantity before and after ingestion of the nicotinamide mononucleotide, a test was conducted on healthy males and females aged 50 to 70 years.\nAs a sample of Working Example 13, a capsule formulation containing the nicotinamide mononucleotide and starch (200 mg of the nicotinamide mononucleotide in 4 capsules) (manufactured by SHINKOWA PHARMACEUTICAL Co., Ltd.) was used.\n(§1) Each group consisting of five healthy males and females aged 50 to 70 years in an unbiased age group ingested the above high dose capsule formulation once a day by 4 capsules for 24 weeks (total 10 subjects, 200 mg/daily ingestion). In order to conduct appropriate evaluations, those who had been regularly using medical products for chronic diseases, those who had been consuming healthy foods that may affect clinical research, and those who were currently participating in other clinical researches or clinical trials or had participated in other clinical researches or clinical trials within the last three months were excluded from the subject for the evaluation. The capsule formulations were ingested at 10 am (between meals and fasting state) together with water or lukewarm water (oral administration).\nMeasurement of the Sirt1 quantity in the blood was conducted by requesting the measurement to an external public organization according to a usual method. The mRNA expression level of the sirtuin gene Sirt1 was analyzed by a real-time PCR method with the blood collected before the ingestion of the nicotinamide mononucleotide (0 weeks) and after the ingestion of the nicotinamide mononucleotide (24 weeks). Note that, in this analysis, cDNA was purified on the day when the blood sample was collected and stored at −80° C. until all samples were prepared. The samples were then subjected to the real-time PCR method at the same time. The expression level was normalized using GAPDH as a reference gene. Table 12 indicates the numerical values of the mRNA expression level of the sirtuin gene Sirt1 (relative to that of GAPDH). Note that the numerical values represent mean values±standard deviation."}, "[2]": {"test_system": "adrenocorticotropic hormone concentration in the plasma", "test": "Evaluation of adrenocorticotropic hormone secretion promoting effect (plasma ACTH, 24-week oral ingestion)", "settings": "for adrenocorticotropic hormone concentration in the plasma, 0 weeks (before ingestion) / adrenocorticotropic hormone concentration in the plasma, 24 weeks (after ingestion) / adrenocorticotropic hormone concentration in the plasma, Change rate (24 weeks - 0 weeks): High Dose Group (200 mg/daily, oral), mean±SD; for adrenocorticotropic hormone concentration in the plasma, 0 weeks (before ingestion): baseline", "method": "In order to confirm a change in the adrenocorticotropic hormone quantity before and after ingestion of the nicotinamide mononucleotide, a test was conducted on healthy males and females aged 50 to 70 years.\nAs a sample of Working Example 10, a capsule formulation containing the nicotinamide mononucleotide and starch (200 mg of the nicotinamide mononucleotide in 4 capsules) (manufactured by SHINKOWA PHARMACEUTICAL Co., Ltd.) was used.\nas §1\nMeasurement of the adrenocorticotropic hormone quantity in the plasma was conducted by requesting the measurement to an external public organization according to a usual method. FIGS. 20a to 20c indicate transitions of the adrenocorticotropic hormone concentration (pg/ml) in the plasma for 24 weeks. FIG. 20a represents the transitions of the whole subjects; FIG. 20b represents the transitions of the male subjects; FIG. 20c represents the transitions of the female subjects. Further, FIGS. 21a to 21c indicate change rates (%) of the blood adrenocorticotropic hormone concentration up to 24 weeks when the nicotinamide mononucleotide was orally administered to the subjects for 24 weeks. FIG. 21a represents the change rates of the whole subjects; FIG. 21b represents the change rates of the male subjects; FIG. 21c represents the change rates of the female subjects. Further, Table 10 indicates the numerical values of the adrenocorticotropic hormone concentration (pg/ml) in the plasma before the ingestion of the nicotinamide mononucleotide (0 weeks) and after the ingestion of the nicotinamide mononucleotide (24 weeks). Note that the numerical values represent mean values±standard deviation."}, "[3]": {"test_system": "melatonin concentration in the plasma", "test": "Evaluation of melatonin secretion promoting effect (plasma melatonin, 24-week oral ingestion)", "settings": "for melatonin concentration in the plasma, 0 weeks (before ingestion): baseline; for melatonin concentration in the plasma, 0 weeks (before ingestion) / melatonin concentration in the plasma, 24 weeks (after ingestion) / melatonin concentration in the plasma, Change rate (24 weeks - 0 weeks): mean±SD", "method": "In order to confirm a change in the melatonin quantity before and after ingestion of the nicotinamide mononucleotide, a test was conducted on healthy males and females aged 50 to 70 years.\nAs a sample of Working Example 1, a capsule formulation containing the nicotinamide mononucleotide and starch (100 mg (low dose) and 200 mg (high dose) of the nicotinamide mononucleotide in 4 capsules) (manufactured by SHINKOWA PHARMACEUTICAL Co., Ltd.) was used.\nas §1, with “the above low dose capsule formulation once a day by 4 capsules for 24 weeks (total 10 subjects, a low dose group: 100 mg/daily ingestion). On the other hand, each group consisting of five healthy males and females aged 50 to 70 years in the unbiased age group ingested the above high dose” for “the above high dose”, “10 subjects, a high dose group: 200 mg/daily” for “10 subjects, 200 mg/daily”, “or clinical trials, or had” for “or clinical trials or had”\nMeasurement of the melatonin quantity in plasma was conducted by requesting the measurement to an external public organization according to a usual method. FIGS. 2a to 2c indicates transitions of the melatonin concentration (pg/ml) in the plasma for 24 weeks. FIG. 2a represents the transitions of the whole subjects; FIG. 2b represents the transitions of the male subjects; FIG. 2c represents the transitions of the female subjects. FIGS. 3a to 3c indicates change rates (%) of the blood melatonin concentration up to 24 weeks when the nicotinamide mononucleotide was orally administered to the subjects for 24 weeks. FIG. 3a represents the change rates of the whole subjects; FIG. 3b represents the change rates of the male subjects; FIG. 3c represents the change rates of the female subjects. Further, Table 1 indicates the numerical values of the melatonin concentration (pg/ml) in the plasma before the ingestion of the nicotinamide mononucleotide (0 weeks) and after the ingestion of the nicotinamide mononucleotide (24 weeks). In addition, the numerical values represent mean values±standard deviation."}, "[4]": {"settings": "Female, High Dose Group (200 mg/daily, oral)"}, "[5]": {"settings": "Female, Low Dose Group (100 mg/daily, oral)"}, "[6]": {"settings": "Male, High Dose Group (200 mg/daily, oral)"}, "[7]": {"settings": "Male, Low Dose Group (100 mg/daily, oral)"}, "[8]": {"settings": "Whole Subjects, High Dose Group (200 mg/daily, oral)"}, "[9]": {"settings": "Whole Subjects, Low Dose Group (100 mg/daily, oral)"}},
  "data": [
    {"smiles": "NC(=O)c1ccc[n+]([C@@H]2O[C@H](COP(=O)([O-])O)[C@@H](O)[C@H]2O)c1", "note": "[nicotinamide mononucleotide]", "values": [
      {"measurement": "mRNA expression level of the sirtuin gene Sirt1 (relative to that of GAPDH), 0 weeks (before ingestion)", "setting": "[1]; Female", "value": "1.01 ± 0.17"},
      {"measurement": "mRNA expression level of the sirtuin gene Sirt1 (relative to that of GAPDH), 24 weeks (after ingestion)", "setting": "[1]; Female", "value": "1.72 ± 0.98"},
      {"measurement": "mRNA expression level of the sirtuin gene Sirt1 (relative to that of GAPDH), Change rate (24 weeks - 0 weeks)", "setting": "[1]; Female", "value": "1.70 ± 0.90"},
      {"measurement": "mRNA expression level of the sirtuin gene Sirt1 (relative to that of GAPDH), 0 weeks (before ingestion)", "setting": "[1]; Male", "value": "1.65 ± 0.99"},
      {"measurement": "mRNA expression level of the sirtuin gene Sirt1 (relative to that of GAPDH), 24 weeks (after ingestion)", "setting": "[1]; Male", "value": "3.69 ± 2.82"},
      {"measurement": "mRNA expression level of the sirtuin gene Sirt1 (relative to that of GAPDH), Change rate (24 weeks - 0 weeks)", "setting": "[1]; Male", "value": "4.67 ± 5.13"},
      {"measurement": "mRNA expression level of the sirtuin gene Sirt1 (relative to that of GAPDH), 0 weeks (before ingestion)", "setting": "[1]; Whole Subjects", "value": "1.33 ± 0.75"},
      {"measurement": "mRNA expression level of the sirtuin gene Sirt1 (relative to that of GAPDH), 24 weeks (after ingestion)", "setting": "[1]; Whole Subjects", "value": "2.71 ± 2.25"},
      {"measurement": "mRNA expression level of the sirtuin gene Sirt1 (relative to that of GAPDH), Change rate (24 weeks - 0 weeks)", "setting": "[1]; Whole Subjects", "value": "3.18 ± 3.81"},
      {"measurement": "expression level of Sirt1 in the blood, effect of ingestion (in words)", "setting": "[1]; oral, 200 mg/daily, 24 weeks", "value": "increased"},
      {"measurement": "adrenocorticotropic hormone concentration in the plasma, 0 weeks (before ingestion)", "setting": "[2]; Female", "value": "17.5 ± 7.0", "unit": "pg/mL"},
      {"measurement": "adrenocorticotropic hormone concentration in the plasma, 24 weeks (after ingestion)", "setting": "[2]; Female", "value": "21.9 ± 14.2", "unit": "pg/mL"},
      {"measurement": "adrenocorticotropic hormone concentration in the plasma, Change rate (24 weeks - 0 weeks)", "setting": "[2]; Female", "value": "4.4 ± 15.3", "unit": "pg/mL"},
      {"measurement": "adrenocorticotropic hormone concentration in the plasma, 0 weeks (before ingestion)", "setting": "[2]; Male", "value": "24.4 ± 10.0", "unit": "pg/mL"},
      {"measurement": "adrenocorticotropic hormone concentration in the plasma, 24 weeks (after ingestion)", "setting": "[2]; Male", "value": "35.7 ± 10.2", "unit": "pg/mL"},
      {"measurement": "adrenocorticotropic hormone concentration in the plasma, Change rate (24 weeks - 0 weeks)", "setting": "[2]; Male", "value": "11.3 ± 4.6", "unit": "pg/mL"},
      {"measurement": "adrenocorticotropic hormone concentration in the plasma, 0 weeks (before ingestion)", "setting": "[2]; Whole Subjects", "value": "20.9 ± 8.9", "unit": "pg/mL"},
      {"measurement": "adrenocorticotropic hormone concentration in the plasma, 24 weeks (after ingestion)", "setting": "[2]; Whole Subjects", "value": "28.8 ± 13.7", "unit": "pg/mL"},
      {"measurement": "adrenocorticotropic hormone concentration in the plasma, Change rate (24 weeks - 0 weeks)", "setting": "[2]; Whole Subjects", "value": "7.8 ± 11.2", "unit": "pg/mL"},
      {"measurement": "adrenocorticotropic hormone concentrations in the plasma, effect of ingestion (in words)", "setting": "[2]; oral, 200 mg/daily, 24 weeks, FIGS. 20a-20c, 21a-21c", "value": "increased"},
      {"measurement": "melatonin concentration in the plasma, 0 weeks (before ingestion)", "setting": "[3]; [4]", "value": "5.77 ± 3.00", "unit": "pg/mL"},
      {"measurement": "melatonin concentration in the plasma, 24 weeks (after ingestion)", "setting": "[3]; [4]", "value": "11.81 ± 8.17", "unit": "pg/mL"},
      {"measurement": "melatonin concentration in the plasma, Change rate (24 weeks - 0 weeks)", "setting": "[3]; [4]", "value": "6.03 ± 5.90", "unit": "pg/mL"},
      {"measurement": "melatonin concentration in the plasma, 0 weeks (before ingestion)", "setting": "[3]; [5]", "value": "7.15 ± 4.51", "unit": "pg/mL"},
      {"measurement": "melatonin concentration in the plasma, 24 weeks (after ingestion)", "setting": "[3]; [5]", "value": "9.37 ± 4.85", "unit": "pg/mL"},
      {"measurement": "melatonin concentration in the plasma, Change rate (24 weeks - 0 weeks)", "setting": "[3]; [5]", "value": "2.21 ± 3.19", "unit": "pg/mL"},
      {"measurement": "melatonin concentration in the plasma, 0 weeks (before ingestion)", "setting": "[3]; [6]", "value": "3.82 ± 1.41", "unit": "pg/mL"},
      {"measurement": "melatonin concentration in the plasma, 24 weeks (after ingestion)", "setting": "[3]; [6]", "value": "6.68 ± 4.04", "unit": "pg/mL"},
      {"measurement": "melatonin concentration in the plasma, Change rate (24 weeks - 0 weeks)", "setting": "[3]; [6]", "value": "2.86 ± 3.10", "unit": "pg/mL"},
      {"measurement": "melatonin concentration in the plasma, 0 weeks (before ingestion)", "setting": "[3]; [7]", "value": "2.76 ± 1.71", "unit": "pg/mL"},
      {"measurement": "melatonin concentration in the plasma, 24 weeks (after ingestion)", "setting": "[3]; [7]", "value": "6.20 ± 3.60", "unit": "pg/mL"},
      {"measurement": "melatonin concentration in the plasma, Change rate (24 weeks - 0 weeks)", "setting": "[3]; [7]", "value": "3.44 ± 3.57", "unit": "pg/mL"},
      {"measurement": "melatonin concentration in the plasma, 0 weeks (before ingestion)", "setting": "[3]; [8]", "value": "4.80 ± 2.44", "unit": "pg/mL"},
      {"measurement": "melatonin concentration in the plasma, Change rate (24 weeks - 0 weeks)", "setting": "[3]; [8]", "value": "4.45 ± 4.75", "unit": "pg/mL"},
      {"measurement": "melatonin concentration in the plasma, 0 weeks (before ingestion)", "setting": "[3]; [9]", "value": "4.96 ± 3.96", "unit": "pg/mL"},
      {"measurement": "melatonin concentration in the plasma, 24 weeks (after ingestion)", "setting": "[3]; [9]", "value": "7.78 ± 4.36", "unit": "pg/mL"},
      {"measurement": "melatonin concentration in the plasma, Change rate (24 weeks - 0 weeks)", "setting": "[3]; [9]", "value": "2.82 ± 3.26", "unit": "pg/mL"},
      {"measurement": "melatonin concentrations in the plasma compared to before ingestion, statistical significance", "setting": "[3]; as a whole, both the low dose group and the high dose group, p<0.05", "value": "a significant difference was observed"},
      {"measurement": "melatonin concentrations in plasma, effect of ingestion (in words)", "setting": "[3]; oral, 100 or 200 mg/daily, 24 weeks, FIGS. 2a-2c, 3a-3c", "value": "increased"}
    ]}
  ]
}
